Test results taken from US20070049593A1 (priority 2004, published 2007).
Structures can show the parent of a compound that is named as a salt.

target: T1, HCV polymerase (Hepatitis C virus genotype 1b, UniProt P26663); experiment: biochemical; set-up: species or system HCV BK strain
T1 construct: a region encoding NS5B (J Virol 1991 March, 65(3), 1105-13, 544 amino acids after deletion of 47 amino acids on the C-terminal); 6xHis (C); made in house; host or cells: Escherichia coli
In short: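 Recombinant HCV BK-strain NS5B (C-terminal 47 aa deleted, His6-tagged, E. coli), 0.5 μg/ml, run with 5 μg/ml in vitro-transcribed RNA template (polyU/3′X), ATP/GTP/CTP 50 μM, UTP 2 μM plus [3H]UTP, pH 7.5, 25° C, 90 min. TCA-precipitated RNA counted by scintillation; IC50 from activity with vs without compound.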

T1 sequence (P26663 2420-2963): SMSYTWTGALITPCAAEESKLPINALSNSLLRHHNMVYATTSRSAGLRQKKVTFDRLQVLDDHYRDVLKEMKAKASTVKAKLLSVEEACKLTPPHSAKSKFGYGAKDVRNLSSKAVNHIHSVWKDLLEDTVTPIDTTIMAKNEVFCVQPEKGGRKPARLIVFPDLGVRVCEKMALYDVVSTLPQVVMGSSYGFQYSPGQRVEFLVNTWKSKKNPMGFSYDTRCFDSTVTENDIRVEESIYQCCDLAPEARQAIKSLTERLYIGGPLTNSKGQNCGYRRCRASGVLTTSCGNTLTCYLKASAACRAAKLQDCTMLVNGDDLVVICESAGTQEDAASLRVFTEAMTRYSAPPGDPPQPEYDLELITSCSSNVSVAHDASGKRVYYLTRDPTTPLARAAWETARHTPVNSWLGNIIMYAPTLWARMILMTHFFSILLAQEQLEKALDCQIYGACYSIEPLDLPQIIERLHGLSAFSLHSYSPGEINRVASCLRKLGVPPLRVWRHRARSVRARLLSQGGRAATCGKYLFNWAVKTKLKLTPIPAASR

COCCOc1ccc2c(c1)N(CCN1CCCCC1)CCn1c-2c(C2CCCCC2)c2ccc(C(=O)O)cc21 [Example 1-546, 13-cyclohexyl-3-(2-methoxyethoxy)-5-[2-(piperidin-1-yl)ethyl]-6,7-dihydro-5H-benzo[5,6][1,4]diazepino[7,1-a]indole-10-carboxylic acid dihydrochloride] and COCCO[C@@H]1CCCN(CCN2CCn3c(c(C4CCCCC4)c4ccc(C(=O)O)cc43)-c3ccc(C)cc32)C1 [Example 1-547, 13-cyclohexyl-5-{2-[(R)-3-(2-methoxyethoxy)piperidin-1-yl]ethyl}-3-methyl-6,7-dihydro-5H-benzo[5,6][1,4]diazepino[7,1-a]indole-10-carboxylic acid dihydrochloride] cannot be ordered by IC50: less than 100 nM for the first, less than 100 nM for the second.

CN(C)CCN1CCn2c(c(C3CCCCC3)c3ccc(C(=O)O)cc32)-c2ccc(OCCOc3ccccc3)cc21 [Example 1-548, 13-cyclohexyl-5-(2-dimethylaminoethyl)-3-(2-phenoxyethoxy)-6,7-dihydro-5H-benzo[5,6][1,4]diazepino[7,1-a]indole-10-carboxylic acid dihydrochloride] and CN(C)CCN1CCn2c(c(C3CCCCC3)c3ccc(C(=O)O)cc32)-c2ccc(OCc3ccc(Cl)s3)cc21 [Example 1-560, 3-(5-chlorothiophen-2-ylmethoxy)-13-cyclohexyl-5-(2-dimethylaminoethyl)-6,7-dihydro-5H-benzo[5,6][1,4]diazepino[7,1-a]indole-10-carboxylic acid dihydrochloride] cannot be ordered by IC50: less than 100 nM for the first, less than 100 nM for the second.

O=C(O)c1ccc2c(C3CCCCC3)c3n(c2c1)CCN(CCN1CCCCC1)c1ncccc1-3 [Example 1-549, 12-cyclohexyl-5-[2-(piperidin-1-yl)ethyl]-6,7-dihydro-5H-4,5,7a-triazadibenzo[a,e]azulene-9-carboxylic acid dihydrochloride] and CN1CCn2c(c(C3CCCCC3)c3ccc(C(=O)O)cc32)-c2cccc(OCCN3CCCCC3)c21 [Example 1-552, 13-cyclohexyl-5-methyl-4-[2-(piperidin-1-yl)ethoxy]-6,7-dihydro-5H-benzo[5,6][1,4]diazepino[7,1-a]indole-10-carboxylic acid dihydrochloride] cannot be ordered by IC50: less than 100 nM for the first, less than 100 nM for the second.

O=C(O)c1ccc2c(C3CCCCC3)c3n(c2c1)CCN(CCN1CCCOCC1)c1cc(F)c(F)cc1-3 [Example 1-550, 13-cyclohexyl-2,3-difluoro-5-[2-(1,4-oxazepan-4-yl)ethyl]-6,7-dihydro-5H-benzo[5,6][1,4]diazepino[7,1-a]indole-10-carboxylic acid dihydrochloride] and Cc1ccc2c(c1)N(CCN1CCSCC1)CCn1c-2c(C2CCCCC2)c2ccc(C(=O)O)cc21 [Example 1-561, 13-cyclohexyl-3-methyl-5-[2-(thiomorpholin-4-yl)ethyl]-6,7-dihydro-5H-benzo[5,6][1,4]diazepino[7,1-a]indole-10-carboxylic acid dihydrochloride] cannot be ordered by IC50: less than 100 nM for the first, less than 100 nM for the second.

COCC1CCCCN(CCN2CCn3c(c(C4CCCCC4)c4ccc(C(=O)O)cc43)-c3ccc(C)cc32)C1 (stereo not shown) [Example 1-551, 13-cyclohexyl-5-[2-(3-methoxymethylazepan-1-yl)ethyl]-3-methyl-6,7-dihydro-5H-benzo[5,6][1,4]diazepino[7,1-a]indole-10-carboxylic acid dihydrochloride] and Cc1ccc2c(c1)N(CCN1CCC[C@@H](CC(=O)O)C1)CCn1c-2c(C2CCCCC2)c2ccc(C(=O)O)cc21 [Example 1-556, 5-[2-((S)-3-carboxymethylpiperidin-1-yl)ethyl]-13-cyclohexyl-3-methyl-6,7-dihydro-5H-benzo[5,6][1,4]diazepino[7,1-a]indole-10-carboxylic acid dihydrochloride] cannot be ordered by IC50: less than 100 nM for the first, less than 100 nM for the second.

CC(=O)N(C)CC[C@@H]1CCCN(CCN2CCn3c(c(C4CCCCC4)c4ccc(C(=O)O)cc43)-c3ccc(C)cc32)C1 [Example 1-553, 5-(2-{(S)-3-[2-(N-acetyl-N-methylamino)ethyl]piperidin-1-yl}ethyl)-13-cyclohexyl-3-methyl-6,7-dihydro-5H-benzo[5,6][1,4]diazepino[7,1-a]indole-10-carboxylic acid dihydrochloride] and Cc1ccc2c(c1)N(CCN1CCC[C@@H](CCN(C)C(=O)N(C)C)C1)CCn1c-2c(C2CCCCC2)c2ccc(C(=O)O)cc21 [Example 1-559, 13-cyclohexyl-3-methyl-5-(2-{(S)-3-[2-(trimethylureido)ethyl]piperidin-1-yl}ethyl)-6,7-dihydro-5H-benzo[5,6][1,4]diazepino[7,1-a]indole-10-carboxylic acid dihydrochloride] cannot be ordered by IC50: less than 100 nM for the first, less than 100 nM for the second.

Cc1ccc2c(c1)N(CCN1CCCCC1)CCn1c-2c(C2CCCCC2)c2ccc(C(=O)O)c(C)c21 [Example 1-554, 13-cyclohexyl-3,9-dimethyl-5-[2-(piperidin-1-yl)ethyl]-6,7-dihydro-5H-benzo[5,6][1,4]diazepino[7,1-a]indole-10-carboxylic acid dihydrochloride] and Cc1ccc2c(c1)N(CCN1CCC[C@@H](CCN(C)C)C1)CCn1c-2c(C2CCCCC2)c2ccc(C(=O)O)cc21 [Example 1-555, 13-cyclohexyl-5-{2-[(S)-3-(2-dimethylaminoethyl)piperidin-1-yl]ethyl}-3-methyl-6,7-dihydro-5H-benzo[5,6][1,4]diazepino[7,1-a]indole-10-carboxylic acid dihydrochloride] cannot be ordered by IC50: less than 100 nM for the first, less than 100 nM for the second.

Cc1ccc2c(c1)N(CCN1CCC[C@@H](CCN(C)C(=O)OC(C)(C)C)C1)CCn1c-2c(C2CCCCC2)c2ccc(C(=O)O)cc21 [Example 1-557, 5-(2-{(S)-3-[2-(N-tert-butoxycarbonyl-N-methylamino)ethyl]piperidin-1-yl)ethyl)-13-cyclohexyl-3-methyl-6,7-dihydro-5H-benzo[5,6][1,4]diazepino[7,1-a]indole-10-carboxylic acid monohydrochloride] and CC(=O)N1CCC(N2CCn3c(c(C4CCCCC4)c4ccc(C(=O)O)cc43)-c3ccc(C)cc32)CC1 [Example 1-563, 5-(1-acetylpiperidin-4-yl)-13-cyclohexyl-3-methyl-6,7-dihydro-5H-benzo[5,6][1,4]diazepino[7,1-a]indole-10-carboxylic acid] cannot be ordered by IC50: less than 100 nM for the first, less than 100 nM for the second.

First: Cc1ccc2c(c1)N(C1CCN(C(=O)OCc3ccccc3)CC1)CCn1c-2c(C2CCCCC2)c2ccc(C(=O)O)cc21 [Example 1-558, 5-(1-benzyloxycarbonylpiperidin-4-yl)-13-cyclohexyl-3-methyl-6,7-dihydro-5H-benzo[5,6][1,4]diazepino[7,1-a]indole-10-carboxylic acid]
Second: Cc1ccc2c(c1)N(C1CCN(C)CC1)CCn1c-2c(C2CCCCC2)c2ccc(C(=O)O)cc21 [Example 1-564, 13-cyclohexyl-3-methyl-5-(1-methylpiperidin-4-yl)-6,7-dihydro-5H-benzo[5,6][1,4]diazepino[7,1-a]indole-10-carboxylic acid dihydrochloride]
The IC50 of the first is higher: 100 to 1000 nM for the first, less than 100 nM for the second.

Molecule Cc1ccc2c(c1)N(C1CCNCC1)CCn1c-2c(C2CCCCC2)c2ccc(C(=O)O)cc21 [Example 1-562, 13-cyclohexyl-3-methyl-5-(piperidin-4-yl)-6,7-dihydro-5H-benzo[5,6][1,4]diazepino[7,1-a]indole-10-carboxylic acid dihydrochloride] has an IC50 of less than 100 nM.
